Experimental data from the supplement of paper PMC10307832.

Assays:
Experiment in all cases: relative viability (nuclei count vs DMSO), 5 days (fraction); higher = more cells survive
Calu-6 = tested on: Calu-6
Method in brief: (§1)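 Lung cancer cell lines in 1536-well plates got either a single drug or a fixed anchor-drug dose together with five library-drug doses (not always all listed) in √10 steps, by pin tool, on the day after seeding. Nuclei were counted after 5 days, and relative viability is the treated-to-vehicle ratio of nuclei counts. Values are medians of duplicate plates.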

EBC-1 = tested on: EBC-1
Method in brief: as §1

NCI-H1355 = tested on: NCI-H1355
Method in brief: as §1

LCLC-103H = tested on: LCLC-103H
Method in brief: as §1

NCI-H1703 = tested on: NCI-H1703
Method in brief: as §1

NCI-H1299 = tested on: NCI-H1299
Method in brief: as §1

A549 = tested on: A549
Method in brief: as §1

IA-LM = tested on: IA-LM
Method in brief: as §1

NCI-H520 = tested on: NCI-H520
Method in brief: as §1

`O=C(O)c1ccc(-c2c[nH]c3ncc(-c4ccccc4)cc23)cc1C1CCCC1` + C[C@]1(O)C[C@@H](c2nc(-c3ccc4ccc(-c5ccccc5)nc4c3)c3c(N)nccn32)C1 [Linsitinib] (partner 1 µM) was tested, and the relative viability (Calu-6; first compound 0.04 µM) was 0.86, the relative viability (Calu-6; first compound 0.1265 µM) was 1.17 and the relative viability (Calu-6; first compound 0.4 µM) was 0.892. It also gave a relative viability (Calu-6; first compound 1.265 µM) of 0.781, a relative viability (EBC-1; first compound 0.04 µM) of 0.862 and a relative viability (EBC-1; first compound 0.1265 µM) of 0.903. It also gave a relative viability (EBC-1; first compound 0.4 µM) of 0.956, a relative viability (EBC-1; first compound 1.265 µM) of 0.697 and a relative viability (NCI-H1355; first compound 0.04 µM) of 0.848. The relative viability (NCI-H1355; first compound 0.1265 µM) was 0.79, the relative viability (NCI-H1355; first compound 0.4 µM) was 0.887 and the relative viability (NCI-H1355; first compound 1.265 µM) was 0.633. The relative viability (LCLC-103H; first compound 0.04 µM) was 1.04, the relative viability (LCLC-103H; first compound 0.1265 µM) was 1.04 and the relative viability (LCLC-103H; first compound 0.4 µM) was 1.17. For the same compound, the relative viability (LCLC-103H; first compound 1.265 µM) was 1.08, the relative viability (NCI-H1703; first compound 0.04 µM) was 0.647 and the relative viability (NCI-H1703; first compound 0.1265 µM) was 1.06. It also gave a relative viability (NCI-H1703; first compound 0.4 µM) of 1.06, a relative viability (NCI-H1703; first compound 1.265 µM) of 0.898 and a relative viability (NCI-H1299; first compound 0.04 µM) of 0.933. It also gave a relative viability (NCI-H1299; first compound 0.1265 µM) of 1.02, a relative viability (NCI-H1299; first compound 0.4 µM) of 1.04 and a relative viability (NCI-H1299; first compound 1.265 µM) of 0.918. It also gave a relative viability (A549; first compound 0.04 µM) of 0.622, a relative viability (A549; first compound 0.1265 µM) of 0.719 and a relative viability (A549; first compound 0.4 µM) of 0.717. For the same compound, the relative viability (A549; first compound 1.265 µM) was 0.505, the relative viability (IA-LM; first compound 0.04 µM) was 0.558 and the relative viability (IA-LM; first compound 0.1265 µM) was 0.685. The relative viability (IA-LM; first compound 0.4 µM) was 0.712, the relative viability (IA-LM; first compound 1.265 µM) was 0.513 and the relative viability (NCI-H520; first compound 0.04 µM) was 0.833. The relative viability (NCI-H520; first compound 0.1265 µM) was 1.13, the relative viability (NCI-H520; first compound 0.4 µM) was 0.904 and the relative viability (NCI-H520; first compound 1.265 µM) was 0.712.

Work on `NC(=O)Nc1cc(-c2cccc(F)c2)sc1C(=O)N[C@H]1CCCNC1` [AZD7762] + Cc1nc(NC(=O)N2CCC[C@H]2C(N)=O)sc1-c1ccnc(C(C)(C)C(F)(F)F)c1 [Alpelisib] (partner 2 µM) yielded a relative viability (Calu-6; first compound 0.01 µM) of 1.03, a relative viability (Calu-6; first compound 0.03162 µM) of 0.935 and a relative viability (Calu-6; first compound 0.1 µM) of 0.881. The relative viability (Calu-6; first compound 0.3162 µM) was 0.411, the relative viability (Calu-6; first compound 1 µM) was 0.157 and the relative viability (EBC-1; first compound 0.01 µM) was 0.952. The relative viability (EBC-1; first compound 0.03162 µM) was 0.714, the relative viability (EBC-1; first compound 0.1 µM) was 0.831 and the relative viability (EBC-1; first compound 0.3162 µM) was 0.763. It also gave a relative viability (EBC-1; first compound 1 µM) of 0.367, a relative viability (NCI-H1355; first compound 0.01 µM) of 0.894 and a relative viability (NCI-H1355; first compound 0.03162 µM) of 0.886. The relative viability (NCI-H1355; first compound 0.1 µM) was 0.825, the relative viability (NCI-H1355; first compound 0.3162 µM) was 0.861 and the relative viability (NCI-H1355; first compound 1 µM) was 0.852. The relative viability (LCLC-103H; first compound 0.01 µM) was 1.01, the relative viability (LCLC-103H; first compound 0.03162 µM) was 0.962 and the relative viability (LCLC-103H; first compound 0.1 µM) was 0.889. For the same compound, the relative viability (LCLC-103H; first compound 0.3162 µM) was 0.977, the relative viability (LCLC-103H; first compound 1 µM) was 0.9 and the relative viability (NCI-H1703; first compound 0.01 µM) was 0.314. It also gave a relative viability (NCI-H1703; first compound 0.03162 µM) of 0.224, a relative viability (NCI-H1703; first compound 0.1 µM) of 0.231 and a relative viability (NCI-H1703; first compound 0.3162 µM) of 0.164. It also gave a relative viability (NCI-H1703; first compound 1 µM) of 0.146, a relative viability (NCI-H1299; first compound 0.01 µM) of 1.16 and a relative viability (NCI-H1299; first compound 0.03162 µM) of 1.01. It also gave a relative viability (NCI-H1299; first compound 0.1 µM) of 1.03, a relative viability (NCI-H1299; first compound 0.3162 µM) of 1.04 and a relative viability (NCI-H1299; first compound 1 µM) of 0.942. It also gave a relative viability (A549; first compound 0.01 µM) of 0.748, a relative viability (A549; first compound 0.03162 µM) of 0.86 and a relative viability (A549; first compound 0.1 µM) of 0.83. It also gave a relative viability (A549; first compound 0.3162 µM) of 0.84, a relative viability (A549; first compound 1 µM) of 0.336 and a relative viability (IA-LM; first compound 0.01 µM) of 0.828. The relative viability (IA-LM; first compound 0.03162 µM) was 0.702, the relative viability (IA-LM; first compound 0.1 µM) was 0.885 and the relative viability (IA-LM; first compound 0.3162 µM) was 1.07. It also gave a relative viability (IA-LM; first compound 1 µM) of 0.364, a relative viability (NCI-H520; first compound 0.01 µM) of 1.05 and a relative viability (NCI-H520; first compound 0.03162 µM) of 1.04. For the same compound, the relative viability (NCI-H520; first compound 0.1 µM) was 0.832, the relative viability (NCI-H520; first compound 0.3162 µM) was 0.635 and the relative viability (NCI-H520; first compound 1 µM) was 0.371.
